# Test system: metallothionein-II mRNA in Saos-2 cells
# Experiment: Regulation of metallothionein II mRNA in Saos-2 cells
# Format: cell-based
# Details: not given
row,Structure (SMILES),Fold upregulation of metallothionein-II mRNA
1,"O=C1C(c2ccc(O)cc2)=C(Br)c2ccc(O)cc21 [Example 3, 3-Bromo-6-hydroxy-2-(4-hydroxyphenyl)-1H-inden-1-one]",10.8
2,"O=C1C(c2ccc(O)cc2)=C(Br)c2c(O)cc(O)cc21 [Example 15, 3-bromo-4,6-dihydroxy-2-(4-hydroxyphenyl)-1H-inden-1-one]",5.6
3,"O=C1C(c2ccc(O)cc2)=C(Br)c2cc(O)ccc21 [Example 4, 3-Bromo-5-hydroxy-2-(4-hydroxyphenyl)-1H-inden-1-one]",10.4

# Target: T1, human ERα (Homo sapiens, UniProt P03372)
# T1 sequence (P03372 250-595): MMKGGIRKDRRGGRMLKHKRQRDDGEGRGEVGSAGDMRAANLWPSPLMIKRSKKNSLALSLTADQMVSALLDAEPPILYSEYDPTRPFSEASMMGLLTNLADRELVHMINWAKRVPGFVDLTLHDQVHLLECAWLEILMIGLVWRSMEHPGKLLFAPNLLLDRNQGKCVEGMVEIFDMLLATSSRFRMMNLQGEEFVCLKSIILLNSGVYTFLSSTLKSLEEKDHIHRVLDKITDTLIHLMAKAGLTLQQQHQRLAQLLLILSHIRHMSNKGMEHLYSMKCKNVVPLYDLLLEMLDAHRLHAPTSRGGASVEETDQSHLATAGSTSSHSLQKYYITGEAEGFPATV
# Experiment: Radioligand binding competition with [3H]-17β-estradiol, ERα
# Details: competition with [3H]-17β-estradiol, human ERα ligand binding domain; read-out: ER-α IC50
row,Structure (SMILES),IC50 [µM]
1,"CC1=C(c2ccc(O)cc2)C(=O)c2cc(O)ccc21 [Example 12, 6-hydroxy-2-(4-hydroxyphenyl)-3-methyl-1H-inden-1-one]",0.055
2,"O=C1C(c2ccc(O)cc2)=C(Br)c2ccc(O)cc21 [Example 3, 3-Bromo-6-hydroxy-2-(4-hydroxyphenyl)-1H-inden-1-one]",0.29
3,"COc1cc(O)cc2c1C(Br)=C(c1ccc(O)cc1)C2=O [Example 16, 3-bromo-6-hydroxy-2-(4-hydroxyphenyl)-4-methoxy-1H-inden-1-one]",0.2
4,"CC1=C(c2ccc(O)cc2)C(=O)c2ccc(O)cc21 [Example 13, 5-hydroxy-2-(4-hydroxyphenyl)-3-methyl-1H-inden-1-one]",0.006
5,"CCSC1=C(c2ccc(O)cc2)C(=O)c2cc(O)ccc21 [Example 6, 3-(Ethylthio)-6-hydroxy-2-(4-hydroxyphenyl)-1H-inden-1-one]",0.01
6,"NC1=C(c2ccc(O)cc2)C(=O)c2ccc(O)cc21 [Example 1, 3-Amino-5-hydroxy-2-(4-hydroxyphenyl)-1H-inden-1-one]",> 5
7,"O=C1C(c2ccc(O)cc2)=C(c2ccccc2)c2c(O)cc(O)cc21 [Example 20, 4,6-Dihydroxy-2-(4-hydroxyphenyl)-3-phenyl-1H-inden-1-one]",0.047

# Results, then the compound that gave them:
row,IC50 [µM],Structure (SMILES)
1,> 5,"CCNC1=C(c2ccc(O)cc2)C(=O)c2cc(O)ccc21 [Example 5, 3-(Ethylamino)-6-hydroxy-2-(4-hydroxyphenyl)-1H-inden-1-one]"
2,0.003,"CSC1=C(c2ccc(O)cc2)C(=O)c2ccc(O)cc21 [Example 9, 5-hydroxy-2-(4-hydroxyphenyl)-3-(methylthio)-1H-inden-1-one]"
3,0.003,"CCSC1=C(c2ccc(O)cc2)C(=O)c2cc(O)cc(O)c21 [Example 19, 3-(Ethylthio)-4,6-Dihydroxy-2-(4-hydroxyphenyl)-1H-inden-1-one]"
4,0.015,"O=C1C(c2ccc(O)cc2)=C(c2ccccc2)c2cc(O)ccc21 [Example 11, 5-hydroxy-2-(4-hydroxyphenyl)-3-phenyl-1H-inden-1-one]"
5,0.076,"CC1=C(c2ccc(O)cc2)C(=O)c2cc(O)c(O)cc21 [Example 22, 5,6-Dihydroxy-2-(4-hydroxyphenyl)-3-methyl-1H-inden-1-one]"
6,0.01,"O=C1C(c2ccc(O)cc2)=C(c2ccccc2)c2ccc(O)cc21 [Example 10, 6-hydroxy-2-(4-hydroxyphenyl)-3-phenyl-1H-inden-1-one]"
7,0.012,"CSC1=C(c2ccc(O)cc2)C(=O)c2cc(O)ccc21 [Example 8, 6-hydroxy-2-(4-hydroxyphenyl)-3-(methylthio)-1H-inden-1-one]"
8,0.4,"CCSC1=C(c2ccc(O)cc2)C(=O)c2ccc(O)cc21 [Example 7, 3-(Ethylthio)-5-hydroxy-2-(4-hydroxyphenyl)-1H-inden-1-one]"
9,0.031,"CC1=C(c2ccc(O)cc2)C(=O)c2c(O)cc(O)cc21 [Example 17, 5,7-Dihydroxy-2-(4-hydroxyphenyl)-3-methyl-1H-inden-1-one]"
10,0.714,"O=C1C(c2ccc(O)cc2)=C(Br)c2c(O)cc(O)cc21 [Example 15, 3-bromo-4,6-dihydroxy-2-(4-hydroxyphenyl)-1H-inden-1-one]"
11,0.005,"O=C1C(c2ccc(O)cc2)=C(Br)c2cc(O)ccc21 [Example 4, 3-Bromo-5-hydroxy-2-(4-hydroxyphenyl)-1H-inden-1-one]"

# Same assay, conditions: read-out: ER-α IC50
row,IC50 [µM],Structure (SMILES)
1,0.003,"O=C1C(c2ccc(O)cc2)=C(c2ccccc2)c2cc(O)cc(O)c21 [Example 21, 5,7-Dihydroxy-2-(4-hydroxyphenyl)-3-phenyl-1H-inden-1-one]"

# Target: T2, human ERβ (Homo sapiens, UniProt Q92731)
# T2 construct: M250-V595 of human ERα [Green, et al., Nature 320: 134-9 (1986)] and M214-Q530 of human ERβ; Flag (C); made in house; host or cells: E. coli BL21(DE3)
# Experiment: Radioligand binding competition with [3H]-17β-estradiol, ERβ
# Details: not given
# T2 sequence (Q92731 214-530): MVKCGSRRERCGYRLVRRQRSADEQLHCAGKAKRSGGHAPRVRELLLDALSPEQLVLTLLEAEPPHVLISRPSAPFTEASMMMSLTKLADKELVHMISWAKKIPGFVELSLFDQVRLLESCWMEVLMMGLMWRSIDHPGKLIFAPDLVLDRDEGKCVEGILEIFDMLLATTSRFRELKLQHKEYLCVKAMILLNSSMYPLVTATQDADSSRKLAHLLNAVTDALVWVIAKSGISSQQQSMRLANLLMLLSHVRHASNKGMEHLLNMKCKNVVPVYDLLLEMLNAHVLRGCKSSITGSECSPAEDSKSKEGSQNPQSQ
row,IC50 [µM],Structure (SMILES)
1,0.001,"CSC1=C(c2ccc(O)cc2)C(=O)c2ccc(O)cc21 [Example 9, 5-hydroxy-2-(4-hydroxyphenyl)-3-(methylthio)-1H-inden-1-one]"
2,0.002,"CCSC1=C(c2ccc(O)cc2)C(=O)c2cc(O)cc(O)c21 [Example 19, 3-(Ethylthio)-4,6-Dihydroxy-2-(4-hydroxyphenyl)-1H-inden-1-one]"
3,0.005,"O=C1C(c2ccc(O)cc2)=C(c2ccccc2)c2cc(O)ccc21 [Example 11, 5-hydroxy-2-(4-hydroxyphenyl)-3-phenyl-1H-inden-1-one]"
4,0.008,"O=C1C(c2ccc(O)cc2)=C(c2ccccc2)c2ccc(O)cc21 [Example 10, 6-hydroxy-2-(4-hydroxyphenyl)-3-phenyl-1H-inden-1-one]"
5,0.002,"CC1=C(c2ccc(O)cc2)C(=O)c2c(O)cc(O)cc21 [Example 17, 5,7-Dihydroxy-2-(4-hydroxyphenyl)-3-methyl-1H-inden-1-one]"
6,0.002,"O=C1C(c2ccc(O)cc2)=C(Br)c2cc(O)ccc21 [Example 4, 3-Bromo-5-hydroxy-2-(4-hydroxyphenyl)-1H-inden-1-one]"

row,Structure (SMILES),IC50 [µM]
1,"NC1=C(c2ccc(O)cc2)C(=O)c2ccc(O)cc21 [Example 1, 3-Amino-5-hydroxy-2-(4-hydroxyphenyl)-1H-inden-1-one]",1.15

# Same assay, conditions: competition with [3H]-17β-estradiol, human ERβ ligand binding domain; read-out: ER-β IC50
row,Structure (SMILES),IC50 [µM]
1,"CC1=C(c2ccc(O)cc2)C(=O)c2cc(O)ccc21 [Example 12, 6-hydroxy-2-(4-hydroxyphenyl)-3-methyl-1H-inden-1-one]",0.011
2,"CCNC1=C(c2ccc(O)cc2)C(=O)c2cc(O)ccc21 [Example 5, 3-(Ethylamino)-6-hydroxy-2-(4-hydroxyphenyl)-1H-inden-1-one]",2.7
3,"COc1cc(O)cc2c1C(Br)=C(c1ccc(O)cc1)C2=O [Example 16, 3-bromo-6-hydroxy-2-(4-hydroxyphenyl)-4-methoxy-1H-inden-1-one]",0.15
4,"CC1=C(c2ccc(O)cc2)C(=O)c2cc(O)c(O)cc21 [Example 22, 5,6-Dihydroxy-2-(4-hydroxyphenyl)-3-methyl-1H-inden-1-one]",0.131
5,"CC1=C(c2ccc(O)cc2)C(=O)c2ccc(O)cc21 [Example 13, 5-hydroxy-2-(4-hydroxyphenyl)-3-methyl-1H-inden-1-one]",0.002
6,"CCSC1=C(c2ccc(O)cc2)C(=O)c2cc(O)ccc21 [Example 6, 3-(Ethylthio)-6-hydroxy-2-(4-hydroxyphenyl)-1H-inden-1-one]",0.008
7,"CSC1=C(c2ccc(O)cc2)C(=O)c2cc(O)ccc21 [Example 8, 6-hydroxy-2-(4-hydroxyphenyl)-3-(methylthio)-1H-inden-1-one]",0.003
8,"CCSC1=C(c2ccc(O)cc2)C(=O)c2ccc(O)cc21 [Example 7, 3-(Ethylthio)-5-hydroxy-2-(4-hydroxyphenyl)-1H-inden-1-one]",0.15
9,"O=C1c2ccc(O)cc2C(=O)C1c1ccc(O)cc1 (stereo not drawn) [Example 2, 5-Hydroxy-2-(4-hydroxyphenyl)-1H-indene-1,3(2H)-dione]",2.63
10,"O=C1C(c2ccc(O)cc2)=C(c2ccccc2)c2c(O)cc(O)cc21 [Example 20, 4,6-Dihydroxy-2-(4-hydroxyphenyl)-3-phenyl-1H-inden-1-one]",0.044
11,"O=C1C(c2ccc(O)cc2)=C(Br)c2c(O)cc(O)cc21 [Example 15, 3-bromo-4,6-dihydroxy-2-(4-hydroxyphenyl)-1H-inden-1-one]",0.267
12,"O=C1c2cc(O)cc(O)c2C(=O)C1c1ccc(O)cc1 (stereo not drawn) [Example 14, 4,6-dihydroxy-2-(4-hydroxyphenyl)-1H-inden-1,3(2H)-dione]",1.38

# Test system: not given
# Experiment: not given
# Details: not given
row,Structure (SMILES),melting point
1,"CC1=C(c2ccc(O)cc2)C(=O)c2cc(O)ccc21 [Example 12, 6-hydroxy-2-(4-hydroxyphenyl)-3-methyl-1H-inden-1-one]",240 to 245 °C
2,"O=C1C(c2ccc(O)cc2)=C(Br)c2ccc(O)cc21 [Example 3, 3-Bromo-6-hydroxy-2-(4-hydroxyphenyl)-1H-inden-1-one]",240 °C (dec.)
3,"COc1cc(O)cc2c1C(Br)=C(c1ccc(O)cc1)C2=O [Example 16, 3-bromo-6-hydroxy-2-(4-hydroxyphenyl)-4-methoxy-1H-inden-1-one]",210 °C (dec.)
4,"CC1=C(c2ccc(O)cc2)C(=O)c2ccc(O)cc21 [Example 13, 5-hydroxy-2-(4-hydroxyphenyl)-3-methyl-1H-inden-1-one]",251 °C
5,"CCSC1=C(c2ccc(O)cc2)C(=O)c2cc(O)ccc21 [Example 6, 3-(Ethylthio)-6-hydroxy-2-(4-hydroxyphenyl)-1H-inden-1-one]",78 to 81 °C
6,"NC1=C(c2ccc(O)cc2)C(=O)c2ccc(O)cc21 [Example 1, 3-Amino-5-hydroxy-2-(4-hydroxyphenyl)-1H-inden-1-one]",260 to 265 °C
7,"O=C1c2ccc(O)cc2C(=O)C1c1ccc(O)cc1 (stereo not drawn) [Example 2, 5-Hydroxy-2-(4-hydroxyphenyl)-1H-indene-1,3(2H)-dione]",227 to 228 °C
8,"O=C1C(c2ccc(O)cc2)=C(c2ccccc2)c2c(O)cc(O)cc21 [Example 20, 4,6-Dihydroxy-2-(4-hydroxyphenyl)-3-phenyl-1H-inden-1-one]",223 to 225 °C
9,"O=C1c2cc(O)cc(O)c2C(=O)C1c1ccc(O)cc1 (stereo not drawn) [Example 14, 4,6-dihydroxy-2-(4-hydroxyphenyl)-1H-inden-1,3(2H)-dione]",220 to 222 °C

# Second part, the compound after the results:
row,melting point,Structure (SMILES)
1,250 °C (dec.),"CCNC1=C(c2ccc(O)cc2)C(=O)c2cc(O)ccc21 [Example 5, 3-(Ethylamino)-6-hydroxy-2-(4-hydroxyphenyl)-1H-inden-1-one]"
2,208 to 210 °C,"CSC1=C(c2ccc(O)cc2)C(=O)c2cc(O)cc(O)c21 [Example 18, 4,6-Dihydroxy-2-(4-hydroxyphenyl)-3-(methylthio)-1H-inden-1-one]"
3,183 to 185 °C,"CSC1=C(c2ccc(O)cc2)C(=O)c2ccc(O)cc21 [Example 9, 5-hydroxy-2-(4-hydroxyphenyl)-3-(methylthio)-1H-inden-1-one]"
4,187 to 190 °C,"CCSC1=C(c2ccc(O)cc2)C(=O)c2cc(O)cc(O)c21 [Example 19, 3-(Ethylthio)-4,6-Dihydroxy-2-(4-hydroxyphenyl)-1H-inden-1-one]"
5,128 to 130 °C,"O=C1C(c2ccc(O)cc2)=C(c2ccccc2)c2cc(O)cc(O)c21 [Example 21, 5,7-Dihydroxy-2-(4-hydroxyphenyl)-3-phenyl-1H-inden-1-one]"
6,222 to 225 °C,"O=C1C(c2ccc(O)cc2)=C(c2ccccc2)c2cc(O)ccc21 [Example 11, 5-hydroxy-2-(4-hydroxyphenyl)-3-phenyl-1H-inden-1-one]"
7,226 to 229 °C,"CC1=C(c2ccc(O)cc2)C(=O)c2cc(O)c(O)cc21 [Example 22, 5,6-Dihydroxy-2-(4-hydroxyphenyl)-3-methyl-1H-inden-1-one]"
8,100 to 110 °C,"O=C1C(c2ccc(O)cc2)=C(c2ccccc2)c2ccc(O)cc21 [Example 10, 6-hydroxy-2-(4-hydroxyphenyl)-3-phenyl-1H-inden-1-one]"
9,90 to 92 °C,"CSC1=C(c2ccc(O)cc2)C(=O)c2cc(O)ccc21 [Example 8, 6-hydroxy-2-(4-hydroxyphenyl)-3-(methylthio)-1H-inden-1-one]"
10,118 to 120 °C,"CCSC1=C(c2ccc(O)cc2)C(=O)c2ccc(O)cc21 [Example 7, 3-(Ethylthio)-5-hydroxy-2-(4-hydroxyphenyl)-1H-inden-1-one]"
11,215 to 217 °C,"CC1=C(c2ccc(O)cc2)C(=O)c2c(O)cc(O)cc21 [Example 17, 5,7-Dihydroxy-2-(4-hydroxyphenyl)-3-methyl-1H-inden-1-one]"
12,350 °C (dec.),"O=C1C(c2ccc(O)cc2)=C(Br)c2c(O)cc(O)cc21 [Example 15, 3-bromo-4,6-dihydroxy-2-(4-hydroxyphenyl)-1H-inden-1-one]"
13,245 °C (dec.),"O=C1C(c2ccc(O)cc2)=C(Br)c2cc(O)ccc21 [Example 4, 3-Bromo-5-hydroxy-2-(4-hydroxyphenyl)-1H-inden-1-one]"

# Reference: patent US6903238B2, “Substituted indenones as estrogenic agents” (Wyeth, priority 2001, dated 2005)
